Results: article PMC10384011, “m-Terphenylamines, Acting as Selective COX-1 Inhibitors, Block Microglia Inflammatory Response and Exert Neuroprotective Activity” (Molecules, 2023)

Experiments:
ovine COX-1 = molecular target: T1, ovine COX-1 (Ovis aries, UniProt P05979); test: Cyclooxygenase colorimetric inhibitor screening assay, COX-1; assay type: biochemical;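 note: COX peroxidase activity read colorimetrically as oxidized TMPD at 590 nm, arachidonic acid as substrate, inhibitors tested at 0.001–50 µM from DMSO stocks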
T1 construct: purchased Cayman Chemicals 701050
T1 sequence (P05979 25-600): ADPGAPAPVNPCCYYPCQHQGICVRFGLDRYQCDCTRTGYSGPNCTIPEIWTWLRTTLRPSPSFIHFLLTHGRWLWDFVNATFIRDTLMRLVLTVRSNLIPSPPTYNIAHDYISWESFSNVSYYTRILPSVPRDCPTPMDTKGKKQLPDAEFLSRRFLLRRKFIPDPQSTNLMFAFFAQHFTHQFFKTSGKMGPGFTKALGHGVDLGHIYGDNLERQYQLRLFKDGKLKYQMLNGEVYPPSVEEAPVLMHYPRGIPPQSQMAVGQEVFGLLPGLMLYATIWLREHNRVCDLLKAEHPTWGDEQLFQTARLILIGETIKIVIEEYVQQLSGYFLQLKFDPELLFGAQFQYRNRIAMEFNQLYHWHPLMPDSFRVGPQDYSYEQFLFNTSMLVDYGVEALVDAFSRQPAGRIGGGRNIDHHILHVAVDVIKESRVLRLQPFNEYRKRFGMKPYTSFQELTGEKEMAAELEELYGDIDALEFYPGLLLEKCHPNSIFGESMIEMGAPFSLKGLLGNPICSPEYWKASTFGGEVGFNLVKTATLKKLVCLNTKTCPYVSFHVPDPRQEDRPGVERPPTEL
Description: (§2) Newly synthesized compounds were evaluated for their ability to inhibit ovine COX-1 or human COX-2 enzyme by measuring the extent (%) of enzyme activity inhibition at different concentrations (0.001, 0.01, 0.1, 1, 10, 50 μM). […] The assay kit measures the peroxidase component of COXs that is assayed colorimetrically by monitoring the appearance of oxidized N,N,N′,N′-tetramethyl-p-phenylenediamine (TMPD) a λ = 590 nm. […] Stock solutions of test compounds were dissolved in DMSO.

human COX-2 = molecular target: T2, human COX-2 (Homo sapiens, UniProt P35354); test: Cyclooxygenase colorimetric inhibitor screening assay, COX-2; assay type: biochemical; conditions: human COX-2, colorimetric kit; read-out: hCOX-2; IC50;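 note: peroxidase activity of COX-2 followed colorimetrically through formation of oxidized TMPD at 590 nm, with arachidonic acid as substrate, compounds tested from 0.001 to 50 µM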
T2 construct: purchased Cayman Chemicals 701050
T2 sequence (P35354 18-604): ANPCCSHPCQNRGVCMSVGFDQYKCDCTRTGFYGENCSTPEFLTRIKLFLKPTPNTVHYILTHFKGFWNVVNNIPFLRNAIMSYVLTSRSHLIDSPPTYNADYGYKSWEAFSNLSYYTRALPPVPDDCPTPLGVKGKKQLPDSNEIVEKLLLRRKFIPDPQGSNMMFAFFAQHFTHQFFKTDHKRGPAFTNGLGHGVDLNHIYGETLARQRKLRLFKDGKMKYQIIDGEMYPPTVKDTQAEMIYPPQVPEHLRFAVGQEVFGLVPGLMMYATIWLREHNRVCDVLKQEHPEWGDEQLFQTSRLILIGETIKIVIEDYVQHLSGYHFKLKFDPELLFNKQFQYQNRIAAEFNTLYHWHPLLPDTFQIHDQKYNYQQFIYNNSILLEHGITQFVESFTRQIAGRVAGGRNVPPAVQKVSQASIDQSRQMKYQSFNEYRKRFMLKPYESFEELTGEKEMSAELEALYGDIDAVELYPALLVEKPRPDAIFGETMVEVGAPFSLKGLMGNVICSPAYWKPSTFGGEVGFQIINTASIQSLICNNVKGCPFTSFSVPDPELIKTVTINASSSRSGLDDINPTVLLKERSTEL
Description: as §2

BV2 microglia cells [1] = test: LPS-induced activated (ramified) phenotype of BV2 microglia; assay type: cell-based; conditions: 3 μM, LPS 1 μg/mL, 24 h
From the text: Next, we set out to study the changes in microglia phenotype under this toxicity protocol. As mentioned above, microglia are comprised of variable morphology cells that are always adapting to the surrounding media and, therefore, to physiopathological conditions. Indeed, morphological appearance is well correlated with the different states of microglia activation. The microglia-activated phenotype (M1), which is the classical state of this kind of cell in response to proinflammatory insults such as LPS, is linked with the overexpression of a plethora of cytokines and inflammatory markers, namely TNF, IL-1β, IL-6, MCP-1 or CD11b. All of these markers are commonly associated with morphological changes towards an amoeboid phenotype in primary cultures or in in vivo studies. Nevertheless, it has been recently described that BV2 microglia, as well as macrophages, turn from rounded to spindle-shaped or multipolar phenotypes in response to various M1 proinflammatory stimuli such as LPS/IFNγ or spinal cord injury conditioned media. In this context, we assessed the ability of our compounds to prevent the morphological changes induced by LPS by analyzing the percentage of BV2 ramified cells (multipolar or spindle) over the total BV2 per field following cell incubation with our compounds and 1 μg/mL LPS for 24 h.
(§1) Cultures were seeded into flasks containing supplemented medium and kept at 37 °C in a humidified atmosphere of 5% CO2 and 95% air. For assays, BV-2 cells were subcultured in 48-well plates at a seeding density of 1 × 10^5 cells per well. Cells were treated with LPS (Sigma-Aldrich, Madrid, Spain) for 24 or 48 h before confluence in RPMI with 1% FBS.

BV2 microglia cells [2] = test: ROS production (H2DCFDA) in LPS-treated BV2 microglia; assay type: cell-based; conditions: 3 μM, LPS 1 μg/mL, 24 h
From the text: Activation of toll-like receptors (TLRs), particularly the TLR4 subtype, is closely associated with the production of reactive oxygen and nitrogen species that contribute to neuronal death in the CNS. In this connection, NADPH oxidase enzymes are the main ones responsible for ROS production induced by NF-κB nuclear translocation. For this reason, we decided to assess the ROS levels of BV2 microglia cells treated with LPS and the effect of our compounds under this toxicity protocol. To this end, the compounds, at different concentrations (3 μM of 3a, 3b, and 3d and 10 μM of 3c) were incubated with 1 μg/mL LPS for 24 h. After this period, ROS production was measured with the fluorescent probe H2DCFDA. Treatment with LPS increased by 1.75-fold the amount of ROS compared with control cells.
as §1
To measure cellular ROS, we used the molecular probe 2′,7′-dichlorodihydrofluorescein diacetate (H2DCFDA). Glial cells were loaded with 5 µM H2DCFDA as it was previously described (Parada et al., 2015). Fluorescence was measured in a fluorescence microplate reader (FLUOstar Galaxy; BMG Labtech, Offenburg, Germany). Wavelengths of excitation and emission were 485 and 520 nm, respectively. The relative pixel intensity was measured in identical regions with (ImageJ 1.52a software, National Institutes of Health, Bethesda, MD, USA).

For `Cc1ccc(-c2cc(N)cc(-c3ccccc3)c2)cc1` [Compound 3b, 4-Methyl-5′-amino-m-terphenyl], the inhibition at 50 µM (ovine COX-1; ovine COX-1, 50 µM, read-out: oCOX-1, % Inhibition at 50 µM (converted)) was 83%, the IC50 (ovine COX-1; ovine COX-1, colorimetric kit, triplicate, read-out: oCOX-1, IC50) was 1100 ± 180 nM and the “COX-1 selectivity (in words)” value (ovine COX-1; ovine COX-1 vs human COX-2) was “complete selectivity towards COX-1”. For the same compound, the IC50 (human COX-2) was over 50000 nM, the “Reduction of the number of BV2 ramified cells” value (BV2 microglia cells [1]) was 60% and the “ROS production induced by LPS” value (BV2 microglia cells [2]) was “significantly reverted ROS production almost to basal levels”.
